Results: US20050070565A1, “Chelerythrine, analogs thereof and their use in the treatment of bipolar disorder and other cognitive disorders” (priority 2003, published 2005)
“Also recorded” adds a separate entry of the source.

How the values were obtained:
[1] = test system: rats; details: cited from earlier work
[2] = test system: rats; assay: Spatial delayed alternation task in a T maze (working memory); type: in vivo, rat
Protocol: (§1) The influence of PKC activation on prefrontal cortical function was tested in rats and monkeys performing spatial working memory tasks that are critically dependant upon the integrity of the prefrontal cortex. All procedures were approved by the Yale Institutional Animal Care and Use Committee. Rats were trained on the spatial delayed alternation task in a T maze, or on a control task, spatial discrimination, which has similar motor and motivational demands but depends upon the posterior cortex and not the prefrontal cortex. Performance on the delayed alternation task is dependant upon the length of the delay between trials. The delay was raised as needed to maintain each individual animals performance at approximately 70% correct, allowing room for improvement or impairment in performance following drug administration.
Following behavioral training, rats were implanted with guide cannulae to allow drug infusions into the prefrontal cortex (stereotaxic coordinates from bregma and skull surface: anterior +3.2 mm, lateral ±0.75 mm, ventral −1.7 mm). The infusion needles projected 2.8 mm below the guide cannula such that the infusion site was −4.5 mm ventral to skull surface. Rats were allowed to recover for one week following surgery. Drug treatments were administered only after the animal achieved stable performance (60-80% correct) for two consecutive days. […] The PMA-induced working memory impairment was blocked by co-administration of chelerythrine, which had no effect on performance when administered alone (FIG. 10A). In contrast, PMA (5 picograms PMA/0.5 μl) had no effect on performance of the control spatial discrimination task (10 sec delays, mean performance after vehicle: 92.0%±11.0%, mean performance after PMA: 88.0%±13.0%, p=0.587, Tdep test).
(§2) NE α-1 adrenergic receptors are positively coupled to PKC through a Gq-protein linked to the PI intracellular signaling pathway (FIG. 1). Previous studies have shown that infusion of the α-1 adrenergic receptor agonist, phenylephrine, into the prefrontal cortex impairs working memory in both rats (Arnsten et al., 1999; FIGS. 2, 6 and 10B) and monkeys (Mao et al, 1999). Likewise, systemic injections of cirazoline, an α-1 adrenergic receptor agonist that crosses the blood brain barrier, impairs working memory in monkeys (FIGS. 5 and 10C). Thus, PKC was activated indirectly by infusing phenylephrine into the prefrontal cortex in rats (5 min prior to cognitive testing), or by systemic administration of cirazoline in monkeys (intramuscular injections, 30 min prior to cognitive testing). Monkeys had been previously trained on the spatial delayed response task, the task most commonly used to assess prefrontal cortical function in nonhuman primates. The PKC inhibitor, chelerythrine, was administered directly into the prefrontal cortex in rats (5 min prior to cognitive testing), or systemically in monkeys (oral administration, 60 min prior to cognitive testing).
(§3) The anxiogenic stressor, FG7142, was administered systemically to rats (interperitonial injection) or monkeys (intramuscular injection) 30 min prior to cognitive testing. Chelerythrine was administered directly into the prefrontal cortex in rats (15 min prior to cognitive testing), or systemically in monkeys (oral administration, 60 min prior to cognitive testing). […] This cognitive impairment was blocked by chelerythrine (FIGS. 11A and 11B), consistent with stress-induced activation of PKC.
(§4) Rats were injected with 0, 0.3, or 3.0 mg/kg chelerythrine s.c. in water approximately 45 minutes before cognitive testing; they receive an injection of the pharmacological stressor, FG7142 (15 mg/kg, i.p.) or vehicle 30 minutes prior to cognitive testing. All drug treatments occur at least one week apart, and the order of treatments is counterbalanced between animals. […] All ratings were performed by experimenters who were very familiar with the normative behavior of the animal but were unaware of the drug treatment conditions.

[3] = test system: rats; assay: Response time per trial (stress-induced freezing) during delayed alternation testing; type: in vivo, rat
Protocol: FIG. 11 illustrates a summary whereby treatment with chelerythrine reverses the detrimental effects of: A. stress in rats; or B. stress in monkeys. […] In A, the anxiogenic stressor, FG7142 (range: 10 to 20 mg/kg), impaired delayed alternation performance compared to vehicle treatment in rats (vehicle+vehicle vs. FG7142+vehicle: * ANOVA-R, F1,10=25.095, p=0.001). The FG7142-induced cognitive deficit was reversed by infusion of the PKC inhibitor, chelerythrine, into the prefrontal cortex 15 min prior to testing (0.3 μg/0.5 μl; FG7142+vehicle vs. FG7142+chelerythrine: † F1,10=10.170, p=0.010). […] The FG7142-induced cognitive deficit was reversed by pretreatment with the PKC inhibitor, chelerythrine (0.03 mg/kg; FG7142+vehicle vs. FG7142+chelerythrine: † F1,4=21.23, p=0.006).
For example, stressors such as FG7142 induce freezing behaviors in rodents that effectively lengthen the delays and increase the memory demands of the task (FIG. 11C).

[4] = test system: rhesus monkeys; assay: Spatial delayed response task (working memory); type: in vivo, rhesus monkey
From the text: as §2, §3
(§5) Chelerythrine was administered orally to rhesus monkeys at doses of either […] or 0.3 mg/kg 60 min before cognitive testing, 30 minutes prior to stress exposure (FG7142 0.2-1.0 mg/kg, i.m.). In addition to cognitive testing, monkeys are also assessed for changes in sedation, agitation, aggression, motivation, food intake, and both fine and gross motor abilities. Four monkeys were tested.

[5] = test system: rats; assay: Spatial discrimination control task; type: in vivo, rat; details: 5 picograms PMA/0.5 μl
Protocol: as §1
Following behavioral training, rats were implanted with guide cannulae to allow drug infusions into the prefrontal cortex (stereotaxic coordinates from bregma and skull surface: anterior +3.2 mm, lateral ±0.75 mm, ventral −1.7 mm). The infusion needles projected 2.8 mm below the guide cannula such that the infusion site was −4.5 mm ventral to skull surface. Rats were allowed to recover for one week following surgery. Drug treatments were administered only after the animal achieved stable performance (60-80% correct) for two consecutive days. […]

[6] = test system: rats; assay: Behavioral observations for side effects in home cage and during cognitive testing; type: in vivo, rat; details: 0.3 or 3.0 mg/kg s.c.
Protocol: as §4

[7] = test system: rhesus monkeys; assay: Assessment of sedation, agitation, aggression, motivation, food intake and motor abilities; type: in vivo, rhesus monkey; details: oral 0.03 or 0.3 mg/kg
Protocol: as §5

[8] = co-infusion into prefrontal cortex, chelerythrine 0.3 μg/0.5 μl

## COc1ccccc1N1CCN(CCCNc2cc(=O)n(C)c(=O)n2C)CC1 [urapidil]
[1]; co-infusion of urapidil into prefrontal cortex
  effect on phenylephrine-induced working memory impairment (FIG. 2): prevented
[1]; urapidil infused into prefrontal cortex
  effect on stress-induced working memory impairment (FIG. 3): prevented

## CNC[C@H](O)c1cccc(O)c1 [phenylephrine, reference compound]
[2]; phenylephrine 0.1 μg/0.5 μl into prefrontal cortex, 5 min prior to testing
  delayed alternation performance after α-1 agonist infusion vs vehicle: significantly impaired

## CNC(=O)c1cc2c(cn1)[nH]c1ccccc12 [FG7142, reference compound]
[3]; FG7142
  average response time for each trial after stressor vs vehicle: increased response time
[2]; FG7142 10 to 20 mg/kg, 30 min prior to testing
  delayed alternation performance after stressor vs vehicle: impaired
[4]; monkeys, FG7142 0.2 to 2.0 mg/kg injection
  delayed response performance after stressor vs vehicle: significantly impaired

## c1ccc(C2CC2)c(OCC2=NCCN2)c1 [cirazoline, reference compound]
[4]; monkeys, cirazoline 0.001 to 10 μg/kg intramuscular, 30 min prior to testing
  delayed response performance after α-1 agonist vs vehicle: significantly impaired

## CCCCCCCCCCCCCC(=O)O[C@@H]1[C@@H](C)[C@@]2(O)[C@@H](C=C(CO)C[C@]3(O)C(=O)C(C)=C[C@@H]23)[C@@H]2C(C)(C)[C@]12OC(C)=O [PMA, phorbol 12-myristate 13-acetate]
[2]; PMA infused into prefrontal cortex, 0.05 to 5 pg/0.5 μl, 10 min prior to testing
  delayed alternation performance after direct PKC activation vs vehicle: significantly impaired
[5]
  effect on performance of control spatial discrimination task: no effect
[5]; 10 sec delays, vehicle 92.0%±11.0%, p=0.587
  mean performance on control spatial discrimination task: 88.0%±13.0%

## COc1ccc2c(c[n+](C)c3c4cc5c(cc4ccc23)OCO5)c1OC.[Cl-] [chelerythrine, 1,2-dimethoxy-12-methyl[1,3]benzodioxolo[5,6-c]phenanthridinium]
[6]
  side effects with administration by itself: no significant side effects
[7]
  tolerability / side effects: well-tolerated with no side effects
[3]; chelerythrine infused into prefrontal cortex
  effect on FG7142-induced increased response time: not blocked; also recorded: no effect on response time
[2]; 0.3 mg/kg s.c., 45 min before testing, FG7142 15 mg/kg i.p., p=0.018, n=4
  effect on detrimental effects of stress exposure, lower systemic dose: significantly reversed
[2]; 3.0 mg/kg s.c., FG7142 15 mg/kg i.p.
  effect on cognitive deficits due to stress, higher systemic dose: did not reverse
[2]; 3.0 mg/kg s.c., no stressor, similar to vehicle
  average correct, drug on its own: 72.5 % correct
[2]; [8]
  effect on PMA-induced working memory deficit: reversed; also recorded: blocked
  effect on phenylephrine-induced working memory deficit: significantly reversed
[2]; infusion into prefrontal cortex 0.3 μg/0.5 μl, 15 min prior to testing
  effect on FG7142 (stress)-induced cognitive deficit: significantly reversed
[2]; infusion into prefrontal cortex 3.0 μg/0.51 μl
  effect on stress response (cognitive deficit), higher infused dose: did not reverse
[2]; infusion into prefrontal cortex 3.0 μg/0.51 μl, no stress
  performance when higher dose infused by itself: no effect
[2]; infusion into prefrontal cortex, 0.3 μg/0.5 μl, no challenge
  delayed alternation performance, drug on its own: no effect
[4]; monkeys, chelerythrine pretreatment 0.03 mg/kg
  effect on FG7142-induced cognitive deficit: reversed
[4]; monkeys, chelerythrine pretreatment 0.03 mg/kg oral, 60 min prior to testing
  effect on cirazoline-induced working memory deficit: reversed
[4]; monkeys, oral chelerythrine, no challenge
  delayed response (cognitive) performance, drug on its own: no effect
[4]; rhesus monkeys, 0.03 mg/kg oral, other half required 0.3 mg/kg for full reversal
  share of monkeys with complete protection at the lower dose: Half of the monkeys showed complete protection
[4]; rhesus monkeys, oral 0.03/kg or 0.3 mg/kg 60 min before testing, FG7142 0.2-1.0 mg/kg i.m., n=4, p<0.05
  effect on detrimental effects of stress on prefrontal cortical function: significantly reversed
